For four molecules, Emax and EC50 results are on record in patent publication US20230265151A1, “GIP/GLP1 CO-AGONIST COMPOUNDS” (priority 2020, published 2023).

What all share (type): cell-based
The target of test [1] is T1, hGIPR (Homo sapiens, UniProt P48546).
T1 construct: expressed in transfected cells
T1 sequence (P48546 22-466): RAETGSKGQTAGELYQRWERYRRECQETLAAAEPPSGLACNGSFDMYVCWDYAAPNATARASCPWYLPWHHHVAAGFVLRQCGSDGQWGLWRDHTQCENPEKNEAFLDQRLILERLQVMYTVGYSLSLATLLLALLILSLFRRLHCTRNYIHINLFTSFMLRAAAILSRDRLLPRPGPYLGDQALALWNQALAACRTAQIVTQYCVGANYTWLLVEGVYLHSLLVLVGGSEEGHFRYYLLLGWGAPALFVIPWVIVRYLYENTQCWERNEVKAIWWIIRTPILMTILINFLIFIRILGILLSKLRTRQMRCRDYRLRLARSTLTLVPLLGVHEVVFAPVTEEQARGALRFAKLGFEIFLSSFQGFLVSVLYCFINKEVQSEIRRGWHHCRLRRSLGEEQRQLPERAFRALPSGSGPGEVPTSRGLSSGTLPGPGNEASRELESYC
The test is described as follows: Functional cAMP formation (HTRF) in HEK-293 clonal cells expressing hGIPR, 0.1% bovine casein, without or with 1.0% human serum albumin. The note with it: for EC50: cAMP, 0.1% bovine casein (no human serum albumin), geometric mean. An outline of the steps:
(§1)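 Cells were stimulated with peptide for 30 min at 37° C, then intracellular cAMP was measured by competitive HTRF (665/620 nm ratio) and converted to nM using a cAMP standard curve. Relative EC50 and Emax came from four-parameter logistic fits of percent maximal response against peptide concentration.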
(Cyclic AMP is a second messenger, typically raised through Gs and lowered through Gi signalling.)

For test [2], the target named is T2, hGCGR (Homo sapiens, UniProt P47871).
T2 construct: expressed in transfected cells
T2 sequence (P47871 26-477): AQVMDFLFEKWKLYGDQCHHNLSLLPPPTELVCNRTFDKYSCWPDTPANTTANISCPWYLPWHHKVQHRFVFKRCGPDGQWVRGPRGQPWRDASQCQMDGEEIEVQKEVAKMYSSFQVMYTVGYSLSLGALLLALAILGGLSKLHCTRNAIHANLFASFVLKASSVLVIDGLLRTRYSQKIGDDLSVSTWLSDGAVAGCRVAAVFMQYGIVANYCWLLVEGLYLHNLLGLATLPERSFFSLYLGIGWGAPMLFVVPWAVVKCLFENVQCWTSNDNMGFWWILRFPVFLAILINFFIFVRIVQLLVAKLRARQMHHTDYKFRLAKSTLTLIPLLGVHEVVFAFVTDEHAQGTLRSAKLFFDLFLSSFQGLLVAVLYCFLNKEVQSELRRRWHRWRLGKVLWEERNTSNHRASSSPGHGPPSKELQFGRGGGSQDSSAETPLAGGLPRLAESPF
The test is described as follows: Functional cAMP formation (HTRF) in HEK-293 clonal cells expressing hGCGR, 0.1% bovine casein, without or with 1.0% human serum albumin. Put shortly: as §1

In test [3] the target is hGLP-1R (Homo sapiens, UniProt P43220). The test is described as follows: Functional cAMP formation (HTRF) in HEK-293 clonal cells expressing hGLP-1R, 0.1% bovine casein, without or with 1.0% human serum albumin. The arrangement: expressed in transfected cells. The note with it: for EC50: geometric mean. An outline of the steps: as §1
hGLP-1R, sequence (P43220 24-463): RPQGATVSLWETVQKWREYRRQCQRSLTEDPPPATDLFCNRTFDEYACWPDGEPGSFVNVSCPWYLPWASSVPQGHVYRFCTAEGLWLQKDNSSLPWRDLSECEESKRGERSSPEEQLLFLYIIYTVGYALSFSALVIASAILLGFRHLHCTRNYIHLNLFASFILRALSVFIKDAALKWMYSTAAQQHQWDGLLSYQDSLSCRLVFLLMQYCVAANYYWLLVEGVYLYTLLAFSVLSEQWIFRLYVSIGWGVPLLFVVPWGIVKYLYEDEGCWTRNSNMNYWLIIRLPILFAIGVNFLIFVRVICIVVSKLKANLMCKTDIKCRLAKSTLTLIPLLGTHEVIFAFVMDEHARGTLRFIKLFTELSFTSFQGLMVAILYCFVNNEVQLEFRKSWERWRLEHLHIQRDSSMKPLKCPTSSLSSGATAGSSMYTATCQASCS
Where [4] appears, read: hGIPR EC50, nM (SEM, n), incubated at 37° C.
Setting [5] is: hGCGR EC50, nM (SEM, n), cAMP, incubated at 37° C., 0.1% bovine casein (no human serum albumin), geometric mean.
[6] abbreviates: HEK293, read-out: hGLP-1R Emax, % ± SEM, percent of maximal response to GLP-1(7-36)NH2, 37° C., 0.1% bovine casein, arithmetic mean.
The mark [7] stands for this setting: hGLP-1R EC50, nM (SEM, n), cAMP, incubated at 37° C., 0.1% bovine casein (no human serum albumin).

Broadly, the Emax is the maximal effect, on the per cent scale that the assay sets. Broadly, the EC50 is the concentration giving half of the maximal effect.

Like-named read-outs stand apart in the source and are kept apart here. *1 amine or outer side, *2 acyl side, *3 side chain or, on linkers, in order; H or OH if unused. Where a SMILES comes first, the peptide text is derived from it. Side-chain parts run from the residue outwards. [ ]: non-standard residue; d: D form. The star is where a group is joined. Decanoyl(10-(4-HOOC-PhO)) = O=C(O)c1ccc(OCCCCCCCCCC(=O)*)cc1; αMePhe(2-F) = C[C@](N)(Cc1ccccc1F)C(=O)O; γGlu = O=C(O)[C@H](CCC(=O)[*:2])N[*:1]; αMeY = C[C@](N)(Cc1ccc(O)cc1)C(=O)O; αMeL = CC(C)C[C@](C)(N)C(=O)O; Orn = NCCC[C@H](N)C(=O)O; AEEA = NCCOCCOCC(=O)O; Aib = CC(C)(N)C(=O)O

As for `CC[C@H](C)[C@H](NC(=O)[C@H](CCCN)NC(=O)[C@H](CC(=O)O)NC(=O)[C@H](CC(C)C)NC(=O)[C@](C)(CC(C)C)NC(=O)[C@@H](NC(=O)C(C)(C)NC(=O)[C@H](Cc1ccc(O)cc1)NC(=O)[C@H](CC(=O)O)NC(=O)[C@H](CO)NC(=O)[C@@H](NC(=O)[C@](C)(Cc1ccccc1F)NC(=O)[C@@H](NC(=O)CNC(=O)[C@H](CCC(=O)O)NC(=O)C(C)(C)NC(=O)[C@@H](N)Cc1ccc(O)cc1)[C@@H](C)O)[C@@H](C)O)[C@@H](C)CC)C(=O)N[C@@H](C)C(=O)N[C@@H](CCC(N)=O)C(=O)NC(C)(C)C(=O)N[C@@H](CCCCNC(=O)COCCOCCNC(=O)COCCOCCNC(=O)CC[C@H](NC(=O)CCCCCCCCCOc1ccc(C(=O)O)cc1)C(=O)O)C(=O)N[C@@H](Cc1ccccc1)C(=O)N[C@H](C(=O)N[C@H](CCC(=O)O)C(=O)N[C@@](C)(Cc1ccc(O)cc1)C(=O)N[C@@H](CC(C)C)C(=O)N[C@H](C(=O)N[C@@H](CCCCNC(=O)COCCOCCNC(=O)COCCOCCNC(=O)CC[C@H](NC(=O)CCCCCCCCCOc1ccc(C(=O)O)cc1)C(=O)O)C(=O)NCC(=O)NCC(=O)N1CCC[C@H]1C(=O)N[C@@H](CO)C(=O)N[C@@H](CO)C(=O)NCC(=O)N[C@@H](C)C(=O)N1CCC[C@H]1C(=O)N1CCC[C@H]1C(=O)N1CCC[C@H]1C(=O)N[C@@H](CO)C(N)=O)[C@@H](C)CC)[C@@H](C)CC` [Example 240] (H-Y[Aib]EGT[αMePhe(2-F)]TSDY[Aib]I[αMeL]LD[Orn]IAQ[Aib]K([AEEA-AEEA-γGlu-Decanoyl(10-(4-HOOC-PhO))])FI[dE][αMeY]LIK([AEEA-AEEA-γGlu-Decanoyl(10-(4-HOOC-PhO))])GGPSSGAPPPS-NH2), the Emax stood at 87.2% in test [1] (HEK293, read-out: hGIPR Emax, % ± SEM, 0.1% bovine casein and 1.0% human serum albumin, 37° C., percent of maximal response to GIP(1-42)NH2); 98.5% in test [3] (setting [6]). For the same molecule, the EC50 is 0.0237 nM in test [1] (setting [4]); over 9950 nM in test [2] (hGCGR EC50, nM (SEM, n), 0.1% bovine casein and 1.0% human serum albumin, 37° C., geometric mean); over 9950 nM in test [2] (setting [5]); 150 nM in test [3] (hGLP-1R EC50, nM (SEM, n), 0.1% bovine casein and 1.0% human serum albumin, 37° C.); 0.508 nM in test [3] (setting [7]).

Turning to `CC[C@H](C)[C@H](NC(=O)[C@H](CC(C)C)NC(=O)[C@](C)(Cc1ccc(O)cc1)NC(=O)[C@@H](CCC(=O)O)NC(=O)[C@@H](NC(=O)[C@H](Cc1ccccc1)NC(=O)[C@H](CCCCNC(=O)COCCOCCNC(=O)CC[C@H](NC(=O)CCCCCCCCCCCCC(=O)O)C(=O)O)NC(=O)C(C)(C)NC(=O)[C@H](CCC(N)=O)NC(=O)[C@H](C)NC(=O)[C@H](CCCCNC(=O)COCCOCCNC(=O)CC[C@H](NC(=O)CCCCCCCCCCCCC(=O)O)C(=O)O)NC(=O)[C@H](CCCN)NC(=O)[C@H](CC(=O)O)NC(=O)[C@H](CC(C)C)NC(=O)[C@](C)(CC(C)C)NC(=O)[C@@H](NC(=O)C(C)(C)NC(=O)[C@H](Cc1ccc(O)cc1)NC(=O)[C@H](CC(=O)O)NC(=O)[C@H](CO)NC(=O)[C@@H](NC(=O)[C@](C)(Cc1ccccc1F)NC(=O)[C@@H](NC(=O)CNC(=O)[C@H](CCC(=O)O)NC(=O)C(C)(C)NC(=O)[C@@H](N)Cc1ccc(O)cc1)[C@@H](C)O)[C@@H](C)O)[C@@H](C)CC)[C@@H](C)CC)C(=O)N[C@@H](CCC(=O)O)C(=O)NCC(=O)NCC(=O)N1CCC[C@H]1C(=O)N[C@@H](CO)C(=O)N[C@@H](CO)C(=O)NCC(=O)N[C@@H](C)C(=O)N1CCC[C@H]1C(=O)N1CCC[C@H]1C(=O)N1CCC[C@H]1C(=O)N[C@@H](CO)C(N)=O` [Example 366], the Emax came out at 95.9% in test [1] (HEK293, cAMP, 37° C., 0.1% bovine casein and 1.0% human serum albumin, percent of maximal response to GIP(1-42)NH2, read-out: hGIPR Emax, % ± SEM); 98.3% in test [3] (HEK293, cAMP, 37° C., 0.1% bovine casein and 1.0% human serum albumin, percent of maximal response to GLP-1(7-36)NH2, read-out: hGLP-1R Emax, % ± SEM); 89.6% in test [3] (HEK293, cAMP, 37° C., 0.1% bovine casein, percent of maximal response to GLP-1(7-36)NH2, arithmetic mean, read-out: hGLP-1R Emax, % ± SEM). Besides, the EC50 in test [1] (37° C., read-out: hGIPR EC50, nM (SEM, n)) is 0.0162 nM; in test [2] (cAMP, 37° C., 0.1% bovine casein (no human serum albumin), geometric mean, read-out: hGCGR EC50, nM (SEM, n)), over 9950 nM; in test [2] (cAMP, 37° C., 0.1% bovine casein and 1.0% human serum albumin, geometric mean (SEM, n), read-out: hGCGR EC50, nM (SEM, n)), over 9950 nM; in test [3] (cAMP, 37° C., 0.1% bovine casein (no human serum albumin), read-out: hGLP-1R EC50, nM (SEM, n)), 0.279 nM.

Turning to `CC[C@H](C)[C@H](NC(=O)[C@H](CC(C)C)NC(=O)[C@](C)(Cc1ccc(O)cc1)NC(=O)[C@H](CCCCNC(=O)COCCOCCNC(=O)COCCOCCNC(=O)CC[C@H](NC(=O)CCCCCCCCCCCCC(=O)O)C(=O)O)NC(=O)[C@@H](NC(=O)[C@H](Cc1ccccc1)NC(=O)[C@H](CCC(=O)O)NC(=O)C(C)(C)NC(=O)[C@H](CCC(N)=O)NC(=O)[C@H](C)NC(=O)[C@H](CCCCNC(=O)COCCOCCNC(=O)COCCOCCNC(=O)CC[C@H](NC(=O)CCCCCCCCCCCCC(=O)O)C(=O)O)NC(=O)[C@H](CCCN)NC(=O)[C@H](CC(=O)O)NC(=O)[C@H](CC(C)C)NC(=O)[C@](C)(CC(C)C)NC(=O)[C@@H](NC(=O)C(C)(C)NC(=O)[C@@H](NC(=O)[C@H](CC(=O)O)NC(=O)[C@H](CO)NC(=O)[C@@H](NC(=O)[C@](C)(Cc1ccccc1F)NC(=O)[C@@H](NC(=O)CNC(=O)[C@H](CCC(=O)O)NC(=O)C(C)(C)NC(=O)[C@@H](N)Cc1ccc(O)cc1)[C@@H](C)O)[C@@H](C)O)C(C)C)[C@@H](C)CC)[C@@H](C)CC)C(=O)N[C@@H](CCC(=O)O)C(=O)NCC(=O)NCC(=O)N1CCC[C@H]1C(=O)N[C@@H](CO)C(=O)N[C@@H](CO)C(=O)NCC(=O)N[C@@H](C)C(=O)N1CCC[C@H]1C(=O)N1CCC[C@H]1C(=O)N1CCC[C@H]1C(=O)N[C@@H](CO)C(N)=O` [Example 115], the concentration for a half-maximal effect (EC50) in test [1] (setting [4]) is 0.103 nM; in test [2] (setting [5]) it was over 9950 nM; in test [3] (setting [7]), 0.16 nM. Also, the Emax in test [3] (setting [6]) was 91.6%.

For `CC[C@H](C)[C@H](NC(=O)[C@H](CC(C)C)NC(=O)[C@](C)(Cc1ccc(O)cc1)NC(=O)[C@@H](CCC(=O)O)NC(=O)[C@@H](NC(=O)[C@H](Cc1ccccc1)NC(=O)[C@H](CCC(=O)O)NC(=O)C1(NC(=O)[C@H](CCC(N)=O)NC(=O)[C@H](C)NC(=O)[C@H](CCCCNC(=O)COCCOCCNC(=O)COCCOCCNC(=O)CC[C@H](NC(=O)CCCCCCCCCCCCC(=O)O)C(=O)O)NC(=O)[C@H](CCCN)NC(=O)[C@H](CC(=O)O)NC(=O)[C@H](CC(C)C)NC(=O)[C@](C)(CC(C)C)NC(=O)[C@@H](NC(=O)[C@H](CO)NC(=O)[C@H](Cc2ccncc2)NC(=O)[C@H](CC(=O)O)NC(=O)[C@H](CO)NC(=O)[C@@H](NC(=O)[C@](C)(Cc2ccccc2F)NC(=O)[C@@H](NC(=O)CNC(=O)[C@H](CCC(=O)O)NC(=O)C(C)(C)NC(=O)[C@@H](N)Cc2ccc(O)cc2)[C@@H](C)O)[C@@H](C)O)[C@@H](C)CC)CCCC1)[C@@H](C)CC)C(=O)N[C@@H](CCC(=O)O)C(=O)NCC(=O)NCC(=O)N[C@@H](CCCCNC(=O)COCCOCCNC(=O)COCCOCCNC(=O)CC[C@H](NC(=O)CCCCCCCCCCCCC(=O)O)C(=O)O)C(=O)N[C@@H](CO)C(=O)N[C@@H](CO)C(=O)NCC(=O)N[C@@H](C)C(=O)N1CCC[C@H]1C(=O)N1CCC[C@H]1C(=O)N1CCC[C@H]1C(=O)N[C@@H](CO)C(N)=O` [Example 170], the Emax in test [1] (HEK293, percent of maximal response to GIP(1-42)NH2, 37° C., 0.1% bovine casein, arithmetic mean, read-out: hGIPR Emax, % ± SEM) was 93.9%. Moreover, the EC50 was over 9950 nM in test [2] (cAMP, incubated at 37° C., 0.1% bovine casein (no human serum albumin), geometric mean, read-out: hGCGR EC50, nM (SEM, n)) and 1.03 nM in test [3] (cAMP, incubated at 37° C., 0.1% bovine casein (no human serum albumin), read-out: hGLP-1R EC50, nM (SEM, n)).
